What was measured:
Format in all cases: in vivo
barnyardgrass [1] = experiment: Test Example 5: herbicidal effects, upland (soil treatment); conditions: after 21 days
Procedure: (§1) Upland soil was filled in 150 cm^2 pot, and seeds of barnyardgrass, Cyperus esculentus L., velvetleaf, black nightshade, tall morningglory and corn were sowed, and grown in a greenhouse. At the next day of seeding, a predetermined chemical dosage of the wettable powder prepared in accordance with Preparation example 5 was diluted with water and applied to soil surface. After 21 days from the treatment, herbicidal effects and crop injury against corn were judged according to the following judgment standard, and the results were shown in Tables 6 to 8.
(§2) Judgment Standard • 0: Growth inhibition rate; 0 to 9% • 1: Growth inhibition rate; 10 to 19% • 2: Growth inhibition rate; 20 to 29% • 3: Growth inhibition rate; 30 to 39% • 4: Growth inhibition rate; 40 to 49% • 5: Growth inhibition rate; 50 to 59% • 6: Growth inhibition rate; 60 to 69% • 7: Growth inhibition rate; 70 to 79% • 8: Growth inhibition rate; 80 to 89% • 9: Growth inhibition rate; 90 to 98% • 10: Growth inhibition rate; 99 to 100%.

black nightshade = experiment: as above; conditions: after 21 days
Procedure: as §1, §2

tall morningglory = experiment: as above; conditions: after 21 days
Procedure: as §1, §2

velvetleaf = experiment: as above; conditions: after 21 days
Procedure: as §1, §2

Cyperus serotinus [2] = experiment: Test Example 1: herbicidal effects, paddy-field pot test; conditions: wettable powder applied 3 days after transplanting, judged after 25 days
Method in brief: (§3)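 Paddy-soil pots sown with weed seeds, germinated Cyperus serotinus tubers and 2.2-leaf rice transplants, kept flooded in a greenhouse. Wettable powder diluted in water applied at set dosage 3 days after transplanting. Weed control and rice injury scored 25 days later on a 0-5 growth-inhibition scale.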

Scirpus joncoides [3] = experiment: as above; conditions: wettable powder applied 3 days after transplanting, judged after 25 days
Method in brief: as §3

[4] = test system: annual broad-leaved weeds (Lindernia spp., Rotala indica); experiment: as above; conditions: wettable powder applied 3 days after transplanting, judged after 25 days
Method in brief: as §3

[5] = test system: barnyardgrass (Echinochloa oryzicola Vasing.); experiment: as above; conditions: wettable powder applied 3 days after transplanting, judged after 25 days
Method in brief: as §3

[6] = test system: transplanted paddy-field rice; experiment: Test Example 1: crop injury against transplanted paddy-field rice; conditions: wettable powder applied 3 days after transplanting, judged after 25 days
Method in brief: as §3

barnyardgrass [7] = experiment: Test Example 2: herbicidal effects (soil treatment); conditions: dosage 5 kg/a; soil treatment the day after seeding; judged after 21 days
Excerpt: (§4) Judgment Standard • 0: Growth inhibition rate; 0 to 10% • 1: Growth inhibition rate; 11 to 30% • 2: Growth inhibition rate; 31 to 50% • 3: Growth inhibition rate; 51 to 70% • 4: Growth inhibition rate; 71 to 90% • 5: Growth inhibition rate; 91 to 100%.
(§5) Upland soil was filled in 150 cm^2 pot, and seeds of barnyardgrass and indian mustard (Brassica juncea (L.) Czern. et Coss) were sowed, and grown in a greenhouse. At the next day of seeding, a predetermined chemical dosage of the wettable powder prepared in accordance with Preparation example 1 was diluted in water and applied to soil surface. After 21 days from the treatment, herbicidal effects were judged in accordance with the judgment standard of Test example 1, and the results were shown in Table 3.

[8] = test system: indian mustard (Brassica juncea (L.) Czern. et Coss); experiment: as above; conditions: dosage 5 kg/a; soil treatment the day after seeding; judged after 21 days
Excerpt: as §4, §5

Cyperus serotinus [9] = experiment: Test Example 4: herbicidal effects of mixed wettable powder, paddy-field pot test; conditions: no second compound, after 25 days
Procedure: (§6) Paddy filed soil was filled in 1/5000 are Wagner pot, seeds of barnyardgrass (Echinochloa oryzicola Vasing.), Scirpus joncoides and annual broad-leaved weeds (Lindernia spp. and Rotala indica) which are awaken from dormancy were mixed at the surface layer of 1 cm. Also, tubers of Cyperus serotinus, Sagittaria pygmaea and Eleocharis kuroguwai which are awaken from dormancy were planted, and further seedlings of paddy-field rice at 2.2-leaf stage were transplanted and they were grown under the flooded condition in a greenhouse. After 3 days from the transplanting, a predetermined chemical dosage of the wettable powder prepared in accordance with Preparation example 5 was diluted with water, and applied to the pot. After 25 days, herbicidal effects and crop injury against transplanted paddy-field rice were judged according to the following judgment standard, and the results were shown in Table 5. Incidentally, “-” in the table means a composition containing no effective ingredient.
(§7) Judgment Standard • 0: Growth-inhibition rate; 0 to 15% • 1: Growth inhibition rate; 16 to 35% • 2: Growth inhibition rate; 36 to 55% • 3: Growth inhibition rate; 56 to 75% • 4: Growth inhibition rate; […] • 5: Growth inhibition rate; 96 to 100%.

Eleocharis kuroguwai = experiment: as above; conditions: no second compound, after 25 days
Procedure: as §6, §7

Sagittaria pygmaea = experiment: as above; conditions: no second compound, after 25 days
Procedure: as §6, §7

Scirpus joncoides [10] = experiment: as above; conditions: no second compound, after 25 days
Procedure: as §6, §7

[11] = test system: annual broad-leaved weeds (Lindernia spp. and Rotala indica); experiment: as above; conditions: no second compound, after 25 days
Procedure: as §6, §7

[12] = test system: barnyardgrass (Echinochloa oryzicola Vasing.); experiment: as above; conditions: no second compound, after 25 days
Procedure: as §6, §7

[13] = test system: transplanted paddy-field rice; experiment: Test Example 4: crop injury against transplanted paddy-field rice; conditions: no second compound, after 25 days
Procedure: as §6, §7

CS(=O)(=O)c1cc(C(F)(F)F)ccc1C(=O)c1cnoc1C1CC1 [Compound D, 5-cyclopropyl-1,2-oxazol-4-yl α,α,α-trifluoro-2-mesyl-p-tolyl ketone]
Herbicidal effects Barnyard grass (barnyardgrass [1]; D alone 6.3 g/ha): 3 (Growth inhibition rate; 30 to 39%) | Herbicidal effects Barnyard grass (barnyardgrass [1]; D alone 12.5 g/ha): 10 (Growth inhibition rate; 99 to 100%) | Herbicidal effects Barnyard grass (barnyardgrass [1]; D alone 25 g/ha): 10 (Growth inhibition rate; 99 to 100%) | Herbicidal effects Black Nightshade (black nightshade; D alone 6.3 g/ha): 5 (Growth inhibition rate; 50 to 59%) | Herbicidal effects Black Nightshade (black nightshade; D alone 12.5 g/ha): 9 (Growth inhibition rate; 90 to 98%) | Herbicidal effects Black Nightshade (black nightshade; D alone 25 g/ha): 9 (Growth inhibition rate; 90 to 98%) | Herbicidal effects Tall Morningglory (tall morningglory; D alone 6.3 g/ha): 2 (Growth inhibition rate; 20 to 29%) | Herbicidal effects Tall Morningglory (tall morningglory; D alone 12.5 g/ha): 0 (Growth inhibition rate; 0 to 9%) | Herbicidal effects Tall Morningglory (tall morningglory; D alone 25 g/ha): 5 (Growth inhibition rate; 50 to 59%) | Herbicidal effects Velvetleaf (velvetleaf; D alone 6.3 g/ha): 6 (Growth inhibition rate; 60 to 69%) | Herbicidal effects Velvetleaf (velvetleaf; D alone 12.5 g/ha): 7 (Growth inhibition rate; 70 to 79%) | Herbicidal effects Velvetleaf (velvetleaf; D alone 25 g/ha): 9 (Growth inhibition rate; 90 to 98%)

Cc1cccc(I)c1Oc1nnc(Cl)cc1O [Example 256]
Herbicidal effects Cyperus serotinus (Cyperus serotinus [2]; chemical dosage 10 g/a): 5 (Growth inhibition rate; 91 to 100%) | Herbicidal effects Cyperus serotinus (Cyperus serotinus [2]; chemical dosage 20 g/a): 5 (Growth inhibition rate; 91 to 100%) | Herbicidal effects Scirpus joncoides (Scirpus joncoides [3]; chemical dosage 10 g/a): 5 (Growth inhibition rate; 91 to 100%) | Herbicidal effects Scirpus joncoides (Scirpus joncoides [3]; chemical dosage 20 g/a): 5 (Growth inhibition rate; 91 to 100%) | Herbicidal effects Broad leaf ([4]; chemical dosage 10 g/a): 5 (Growth inhibition rate; 91 to 100%) | Herbicidal effects Broad leaf ([4]; chemical dosage 20 g/a): 5 (Growth inhibition rate; 91 to 100%) | Herbicidal effects Barnyard grass ([5]; chemical dosage 10 g/a): 3 (Growth inhibition rate; 51 to 70%) | Herbicidal effects Barnyard grass ([5]; chemical dosage 20 g/a): 4 (Growth inhibition rate; 71 to 90%) | Crop injury against transplanted rice ([6]; chemical dosage 10 g/a): 2 (Growth inhibition rate; 31 to 50%) | Crop injury against transplanted rice ([6]; chemical dosage 20 g/a): 3 (Growth inhibition rate; 51 to 70%) | Herbicidal effects Barnyard-grass (barnyardgrass [7]): 3 (Growth inhibition rate; 51 to 70%) | Herbicidal effects indian mustard [8]: 5 (Growth inhibition rate; 91 to 100%)

Cc1cc(C)c(C2CC2)c(Oc2nnc(Cl)cc2O)c1 [Example 288]
Herbicidal effects Cyperus serotinus (Cyperus serotinus [2]; chemical dosage 10 g/a): 5 (Growth inhibition rate; 91 to 100%) | Herbicidal effects Cyperus serotinus (Cyperus serotinus [2]; chemical dosage 20 g/a): 5 (Growth inhibition rate; 91 to 100%) | Herbicidal effects Scirpus joncoides (Scirpus joncoides [3]; chemical dosage 10 g/a): 5 (Growth inhibition rate; 91 to 100%) | Herbicidal effects Scirpus joncoides (Scirpus joncoides [3]; chemical dosage 20 g/a): 5 (Growth inhibition rate; 91 to 100%) | Herbicidal effects Broad leaf ([4]; chemical dosage 10 g/a): 5 (Growth inhibition rate; 91 to 100%) | Herbicidal effects Broad leaf ([4]; chemical dosage 20 g/a): 5 (Growth inhibition rate; 91 to 100%) | Herbicidal effects Barnyard grass ([5]; chemical dosage 10 g/a): 0 (Growth inhibition rate; 0 to 10%) | Herbicidal effects Barnyard grass ([5]; chemical dosage 20 g/a): 1 (Growth inhibition rate; 11 to 30%) | Crop injury against transplanted rice ([6]; chemical dosage 10 g/a): 0 (Growth inhibition rate; 0 to 10%) | Crop injury against transplanted rice ([6]; chemical dosage 20 g/a): 0 (Growth inhibition rate; 0 to 10%) | Herbicidal effects Cyperus serotinus (Cyperus serotinus [9]; derivative 5 g/a): 4 (Growth inhibition rate; 7.6 to 95%) | Herbicidal effects Cyperus serotinus (Cyperus serotinus [9]; derivative 10 g/a): 5 (Growth inhibition rate; 96 to 100%) | Herbicidal effects Eleocharis kuroguwai (Eleocharis kuroguwai; derivative 5 g/a): 2 (Growth inhibition rate; 36 to 55%) | Herbicidal effects Eleocharis kuroguwai (Eleocharis kuroguwai; derivative 10 g/a): 3 (Growth inhibition rate; 56 to 75%) | Herbicidal effects Sagittaria pygmaea (Sagittaria pygmaea; derivative 5 g/a): 5 (Growth inhibition rate; 96 to 100%) | Herbicidal effects Sagittaria pygmaea (Sagittaria pygmaea; derivative 10 g/a): 5 (Growth inhibition rate; 96 to 100%) | Herbicidal effects Scirpus joncoides (Scirpus joncoides [10]; derivative 5 g/a): 5 (Growth inhibition rate; 96 to 100%) | Herbicidal effects Scirpus joncoides (Scirpus joncoides [10]; derivative 10 g/a): 5 (Growth inhibition rate; 96 to 100%) | Herbicidal effects Broad leaf ([11]; derivative 5 g/a): 5 (Growth inhibition rate; 96 to 100%) | Herbicidal effects Broad leaf ([11]; derivative 10 g/a): 5 (Growth inhibition rate; 96 to 100%) | Herbicidal effects Barnyard grass ([12]; derivative 5 g/a): 0 (Growth-inhibition rate; 0 to 15%) | Herbicidal effects Barnyard grass ([12]; derivative 10 g/a): 0 (Growth-inhibition rate; 0 to 15%) | Crop injury against transplanted rice ([13]; derivative 5 g/a): 0 (Growth-inhibition rate; 0 to 15%) | Crop injury against transplanted rice ([13]; derivative 10 g/a): 0 (Growth-inhibition rate; 0 to 15%)

COc1ccc(C)cc1Oc1nnc(Cl)cc1O [Example 16]
Herbicidal effects Cyperus serotinus (Cyperus serotinus [2]; chemical dosage 10 g/a): 5 (Growth inhibition rate; 91 to 100%) | Herbicidal effects Cyperus serotinus (Cyperus serotinus [2]; chemical dosage 20 g/a): 5 (Growth inhibition rate; 91 to 100%) | Herbicidal effects Scirpus joncoides (Scirpus joncoides [3]; chemical dosage 10 g/a): 5 (Growth inhibition rate; 91 to 100%) | Herbicidal effects Scirpus joncoides (Scirpus joncoides [3]; chemical dosage 20 g/a): 5 (Growth inhibition rate; 91 to 100%) | Herbicidal effects Broad leaf ([4]; chemical dosage 10 g/a): 5 (Growth inhibition rate; 91 to 100%) | Herbicidal effects Broad leaf ([4]; chemical dosage 20 g/a): 5 (Growth inhibition rate; 91 to 100%) | Herbicidal effects Barnyard grass ([5]; chemical dosage 10 g/a): 0 (Growth inhibition rate; 0 to 10%) | Herbicidal effects Barnyard grass ([5]; chemical dosage 20 g/a): 1 (Growth inhibition rate; 11 to 30%) | Crop injury against transplanted rice ([6]; chemical dosage 10 g/a): 0 (Growth inhibition rate; 0 to 10%) | Crop injury against transplanted rice ([6]; chemical dosage 20 g/a): 0 (Growth inhibition rate; 0 to 10%) | Herbicidal effects Cyperus serotinus (Cyperus serotinus [9]; derivative 5 g/a): 4 (Growth inhibition rate; 7.6 to 95%) | Herbicidal effects Cyperus serotinus (Cyperus serotinus [9]; derivative 10 g/a): 5 (Growth inhibition rate; 96 to 100%) | Herbicidal effects Eleocharis kuroguwai (Eleocharis kuroguwai; derivative 5 g/a): 0 (Growth-inhibition rate; 0 to 15%) | Herbicidal effects Eleocharis kuroguwai (Eleocharis kuroguwai; derivative 10 g/a): 1 (Growth inhibition rate; 16 to 35%) | Herbicidal effects Sagittaria pygmaea (Sagittaria pygmaea; derivative 5 g/a): 3 (Growth inhibition rate; 56 to 75%) | Herbicidal effects Sagittaria pygmaea (Sagittaria pygmaea; derivative 10 g/a): 4 (Growth inhibition rate; 7.6 to 95%) | Herbicidal effects Scirpus joncoides (Scirpus joncoides [10]; derivative 5 g/a): 3 (Growth inhibition rate; 56 to 75%) | Herbicidal effects Scirpus joncoides (Scirpus joncoides [10]; derivative 10 g/a): 5 (Growth inhibition rate; 96 to 100%) | Herbicidal effects Broad leaf ([11]; derivative 5 g/a): 5 (Growth inhibition rate; 96 to 100%) | Herbicidal effects Broad leaf ([11]; derivative 10 g/a): 5 (Growth inhibition rate; 96 to 100%) | Herbicidal effects Barnyard grass ([12]; derivative 5 g/a): 0 (Growth-inhibition rate; 0 to 15%) | Herbicidal effects Barnyard grass ([12]; derivative 10 g/a): 0 (Growth-inhibition rate; 0 to 15%) | Crop injury against transplanted rice ([13]; derivative 5 g/a): 0 (Growth-inhibition rate; 0 to 15%) | Crop injury against transplanted rice ([13]; derivative 10 g/a): 0 (Growth-inhibition rate; 0 to 15%)
